Read-outs that look alike come from different tables or passages of the source.
Legend:
[1] = biological target: T1, Recombinant G2019S-LRRK2 protein (Homo sapiens, UniProt Q5S007, G2019S); assay: LanthaScreen Kinase Activity Assay (TR-FRET), G2019S-LRRK2; type: biochemical; conditions: class symbols; 25 μM ATP, 400 nM LRRKtide, 2.9 nM kinase, 60 min at room temperature
T1 construct: purchased Life Technologies PV4881
How it was run: (§1)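 Recombinant wild-type or G2019S LRRK2 (2.9 nM final) phosphorylated fluorescein-LRRKtide (400 nM) with 25 μM ATP in 50 mM Tris pH 8.5, 5 mM MgCl2, 1 mM EGTA, 0.01% Brij-35, 2 mM DTT for 60 min at RT. After EDTA stop, Tb-anti-pERM TR-FRET (520/495 nm ratio) was read. IC50 values came from 11-point, 3-fold compound dilutions.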

[2] = biological target: T2, Recombinant wild type LRRK2 protein (Homo sapiens, UniProt Q5S007); assay: LanthaScreen Kinase Activity Assay (TR-FRET), wild type LRRK2; type: biochemical; conditions: 25 μM ATP, 400 nM LRRKtide, 2.9 nM kinase, 60 min at room temperature, read-out: LRRK2 WT IC50
T2 construct: purchased Life Technologies PR8604B
How it was run: as §1

[3] = numeric bound instead of class symbol

T1 sequence (Q5S007 whole entry G2019S): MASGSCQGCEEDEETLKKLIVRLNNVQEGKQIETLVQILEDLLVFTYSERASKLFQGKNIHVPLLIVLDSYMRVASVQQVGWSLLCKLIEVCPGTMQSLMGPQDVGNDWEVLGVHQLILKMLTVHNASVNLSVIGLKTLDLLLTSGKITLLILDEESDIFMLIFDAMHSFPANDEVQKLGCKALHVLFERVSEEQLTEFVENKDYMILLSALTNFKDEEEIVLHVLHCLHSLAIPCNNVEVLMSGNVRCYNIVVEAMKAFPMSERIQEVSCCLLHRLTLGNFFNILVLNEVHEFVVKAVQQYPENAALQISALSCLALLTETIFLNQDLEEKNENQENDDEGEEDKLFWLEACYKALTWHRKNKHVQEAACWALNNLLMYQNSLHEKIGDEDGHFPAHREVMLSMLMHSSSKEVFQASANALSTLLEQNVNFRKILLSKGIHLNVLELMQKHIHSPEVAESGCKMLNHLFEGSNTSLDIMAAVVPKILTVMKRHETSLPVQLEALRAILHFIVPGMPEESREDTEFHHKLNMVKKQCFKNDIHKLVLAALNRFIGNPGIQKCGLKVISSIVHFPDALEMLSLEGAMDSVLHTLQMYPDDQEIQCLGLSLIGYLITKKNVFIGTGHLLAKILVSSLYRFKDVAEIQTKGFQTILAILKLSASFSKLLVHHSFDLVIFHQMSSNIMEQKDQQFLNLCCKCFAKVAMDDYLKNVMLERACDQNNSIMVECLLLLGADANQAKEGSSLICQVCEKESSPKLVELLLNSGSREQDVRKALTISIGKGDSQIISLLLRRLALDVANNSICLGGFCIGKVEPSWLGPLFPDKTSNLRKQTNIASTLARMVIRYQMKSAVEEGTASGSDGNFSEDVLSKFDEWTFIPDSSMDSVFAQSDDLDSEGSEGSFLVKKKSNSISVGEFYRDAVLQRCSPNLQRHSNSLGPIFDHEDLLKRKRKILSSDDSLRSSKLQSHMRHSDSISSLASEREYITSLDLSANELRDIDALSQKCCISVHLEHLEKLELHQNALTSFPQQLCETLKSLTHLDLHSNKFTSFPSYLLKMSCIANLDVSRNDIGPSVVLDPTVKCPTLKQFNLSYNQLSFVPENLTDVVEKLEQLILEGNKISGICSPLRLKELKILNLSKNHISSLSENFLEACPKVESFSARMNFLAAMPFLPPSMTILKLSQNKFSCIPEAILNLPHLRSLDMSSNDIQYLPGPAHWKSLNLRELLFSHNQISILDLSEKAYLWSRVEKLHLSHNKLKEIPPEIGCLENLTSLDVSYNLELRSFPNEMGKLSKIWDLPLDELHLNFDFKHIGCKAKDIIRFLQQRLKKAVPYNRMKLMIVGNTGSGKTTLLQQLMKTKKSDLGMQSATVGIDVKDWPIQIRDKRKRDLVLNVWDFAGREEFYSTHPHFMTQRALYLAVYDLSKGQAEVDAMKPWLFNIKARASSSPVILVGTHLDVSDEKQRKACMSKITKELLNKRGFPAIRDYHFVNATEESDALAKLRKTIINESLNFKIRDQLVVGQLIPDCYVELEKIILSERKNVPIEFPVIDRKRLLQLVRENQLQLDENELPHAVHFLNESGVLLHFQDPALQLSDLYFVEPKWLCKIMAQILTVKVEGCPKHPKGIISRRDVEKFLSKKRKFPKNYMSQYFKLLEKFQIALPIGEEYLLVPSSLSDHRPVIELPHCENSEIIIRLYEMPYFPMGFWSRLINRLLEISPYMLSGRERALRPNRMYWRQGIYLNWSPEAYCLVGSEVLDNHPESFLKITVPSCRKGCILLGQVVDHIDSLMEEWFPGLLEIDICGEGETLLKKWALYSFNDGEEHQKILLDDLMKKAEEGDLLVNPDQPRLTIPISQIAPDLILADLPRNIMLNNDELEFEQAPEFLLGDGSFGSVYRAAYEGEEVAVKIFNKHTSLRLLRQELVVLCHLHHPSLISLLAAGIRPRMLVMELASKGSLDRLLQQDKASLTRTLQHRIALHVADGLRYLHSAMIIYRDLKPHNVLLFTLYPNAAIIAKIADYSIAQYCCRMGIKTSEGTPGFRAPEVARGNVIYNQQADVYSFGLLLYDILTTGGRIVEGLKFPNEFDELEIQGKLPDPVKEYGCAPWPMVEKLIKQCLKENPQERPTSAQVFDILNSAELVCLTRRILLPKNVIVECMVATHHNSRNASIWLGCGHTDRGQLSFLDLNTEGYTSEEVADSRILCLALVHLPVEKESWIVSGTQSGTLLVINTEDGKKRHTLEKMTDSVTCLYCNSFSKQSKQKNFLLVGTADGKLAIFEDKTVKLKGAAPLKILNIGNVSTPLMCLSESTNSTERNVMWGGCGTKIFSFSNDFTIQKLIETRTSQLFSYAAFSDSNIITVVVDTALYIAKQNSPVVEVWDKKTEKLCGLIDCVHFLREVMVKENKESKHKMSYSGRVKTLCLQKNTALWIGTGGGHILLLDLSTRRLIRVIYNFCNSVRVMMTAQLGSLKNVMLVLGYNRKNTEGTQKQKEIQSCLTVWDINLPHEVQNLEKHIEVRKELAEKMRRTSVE
T2 sequence (Q5S007 whole entry): as the sequence (Q5S007 whole entry G2019S) above, with S2019G counted along it

| SMILES | IC50 [1] [nM] | IC50 ([2]; class symbols) [nM] | IC50 [2, 3] [nM] |
| --- | --- | --- | --- |
| Cc1cccc(-c2n[nH]c3ccc(NC(=O)c4c(F)cc5c(cnn5C)c4F)cc23)n1 [Example 71, 4,6-Difluoro-1-methyl-N-(3-(6-methylpyridin-2-yl)-1H-indazol-5-yl)-1H-indazole-5-carboxamide] | ≤ 100 | 100 to 1000 | – |
| Cc1nn(C)cc1-c1n[nH]c2ccc(NC(=O)c3c(F)cc4c(cnn4C)c3F)cc12 [Example 80, N-(3-(1,3-Dimethyl-1H-pyrazol-4-yl)-1H-indazol-5-yl)-4,6-difluoro-1-methyl-1H-indazole-5-carboxamide] | ≤ 100 | ≤ 100 | – |
| O=C(Nc1ccc2[nH]nc(-c3ccoc3)c2c1)c1ccn2nccc2n1 [Example 127, N-(3-(Furan-3-yl)-1H-indazol-5-yl)pyrazolo[1,5-a]pyrimidine-5-carboxamide] | ≤ 100 | 100 to 1000 | – |
| O=C(Nc1ccc2[nH]nc(-c3ccoc3)c2c1)c1ccc2ncsc2n1 [Example 122, N-(3-(Furan-3-yl)-1H-indazol-5-yl)thiazolo[5,4-b]pyridine-5-carboxamide] | ≤ 100 | ≤ 100 | – |
| COc1ccccc1-c1n[nH]c2ccc(NC(=O)c3c(F)cc4c(cnn4C)c3F)cc12 [Example 85, 4,6-Difluoro-N-(3-(2-methoxyphenyl)-1H-indazol-5-yl)-1-methyl-1H-indazole-5-carboxamide] | ≤ 100 | 1000 to 10000 | – |
| Cc1n[nH]c2ccc(NC(=O)c3c(F)cc4c(cnn4C)c3F)cc12 [Example 51, 4,6-Difluoro-1-methyl-N-(3-methyl-1H-indazol-5-yl)-1H-indazole-5-carboxamide] | ≤ 100 | 100 to 1000 | – |
| Cc1cn2cncc2cc1C(=O)Nc1ccc2[nH]nc(-c3ccccc3)c2c1 [Example 52, 6-Methyl-N-(3-phenyl-1H-indazol-5-yl)imidazo[1,5-a]pyridine-7-carboxamide] | ≤ 100 | ≤ 100 | – |
| Cc1ccccc1-c1n[nH]c2ccc(NC(=O)c3c(F)cc4c(cnn4C)c3F)cc12 [Example 77, 4,6-Difluoro-1-methyl-N-(3-(o-tolyl)-1H-indazol-5-yl)-1H-indazole-5-carboxamide] | 1000 to 10000 | 1000 to 10000 | – |
| Cn1ncc2c(F)c(C(=O)Nc3ccc4[nH]nc(N5CCCC5)c4c3)c(F)cc21 [Example 108, 4,6-Difluoro-1-methyl-N-(3-(pyrrolidin-1-yl)-1H-indazol-5-yl)-1H-indazole-5-carboxamide] | 100 to 1000 | 1000 to 10000 | – |
| Cc1cnccc1-c1n[nH]c2ccc(NC(=O)c3c(F)cc4c(cnn4C)c3F)cc12 [Example 40, 4,6-Difluoro-1-methyl-N-(3-(3-methylpyridin-4-yl)-1H-indazol-5-yl)-1H-indazole-5-carboxamide] | 100 to 1000 | 1000 to 10000 | – |
| Cn1ncc2c(F)c(C(=O)Nc3ccc4[nH]nc(-c5ccc(N6CCOCC6)cc5)c4c3)c(F)cc21 [Example 94, 4,6-Difluoro-1-methyl-N-(3-(4-morpholinophenyl)-1H-indazol-5-yl)-1H-indazole-5-carboxamide] | ≤ 100 | ≤ 100 | – |
| Cc1n[nH]c2ccc(NC(=O)c3ccc4[nH]nnc4c3C#N)cc12 [Example 14, 4-Cyano-N-(3-methyl-1H-indazol-5-yl)-1H-benzo[d][1,2,3]triazole-5-carboxamide] | 1000 to 10000 | – | > 10000 |
| Cn1ncc2c(F)c(C(=O)Nc3ccc4[nH]nc(-c5ccsc5)c4c3)c(F)cc21 [Example 100, 4,6-Difluoro-1-methyl-N-(3-(thiophen-3-yl)-1H-indazol-5-yl)-1H-indazole-5-carboxamide] | ≤ 100 | ≤ 100 | – |
| O=C(Nc1ccc2[nH]nc(-c3ccoc3)c2c1)c1nc2cnccc2s1 [Example 170, N-(3-(Furan-3-yl)-1H-indazol-5-yl)thiazolo[4,5-c]pyridine-2-carboxamide] | ≤ 100 | 100 to 1000 | – |
| Cn1ncc2cc(C(=O)Nc3ccc4[nH]nc(-c5ccoc5)c4c3)ccc21 [Example 133, N-(3-(Furan-3-yl)-1H-indazol-5-yl)-1-methyl-1H-indazole-5-carboxamide] | ≤ 100 | ≤ 100 | – |
| Cc1cc2cncn2cc1C(=O)Nc1ccc2[nH]nc(C)c2c1 [Example 145, 7-Methyl-N-(3-methyl-1H-indazol-5-yl)imidazo[1,5-a]pyridine-6-carboxamide] | ≤ 100 | 100 to 1000 | – |
| Cc1cn2cnnc2c(C)c1C(=O)Nc1ccc2[nH]nc(C)c2c1 [Example 58, 6,8-Dimethyl-N-(3-methyl-1H-indazol-5-yl)-[1,2,4]triazolo[4,3-a]pyridine-7-carboxamide] | 100 to 1000 | 1000 to 10000 | – |
| Cn1ncc2c(F)c(C(=O)Nc3cc4c(-c5ccccc5)n[nH]c4cc3F)c(F)cc21 [Example 143, 4,6-Difluoro-N-(6-fluoro-3-phenyl-1H-indazol-5-yl)-1-methyl-1H-indazole-5-carboxamide] | ≤ 100 | 100 to 1000 | – |

| SMILES | IC50 [1] [nM] | IC50 ([2]; class symbols) [nM] | IC50 [2, 3] [nM] |
| --- | --- | --- | --- |
| Cc1cc(-c2n[nH]c3ccc(NC(=O)c4c(F)cc5c(cnn5C)c4F)cc23)cc(C)n1 [Example 83, N-(3-(2,6-Dimethylpyridin-4-yl)-1H-indazol-5-yl)-4,6-difluoro-1-methyl-1H-indazole-5-carboxamide] | ≤ 100 | ≤ 100 | – |
| Cn1ncc2cc(C(=O)Nc3ccc4[nH]nc(-c5ccccc5)c4c3)ccc21 [Example 107, 1-Methyl-N-(3-phenyl-1H-indazol-5-yl)-1H-indazole-5-carboxamide] | 100 to 1000 | 1000 to 10000 | – |
| Cc1noc(C)c1-c1n[nH]c2ccc(NC(=O)c3c(F)cc4c(cnn4C)c3F)cc12 [Example 36, N-(3-(3,5-Dimethylisoxazol-4-yl)-1H-indazol-5-yl)-4,6-difluoro-1-methyl-1H-indazole-5-carboxamide] | 1000 to 10000 | – | > 10000 |
| O=C(Nc1ccc2[nH]nc(-c3ccoc3)c2c1)C1CCc2nncn2C1 (single isomer, unassigned) [Example 162a] | ≤ 100 | ≤ 100 | – |
| O=C(Nc1ccc2[nH]nc(-c3ccoc3)c2c1)c1ccc2scnc2c1 [Example 124, N-(3-(Furan-3-yl)-1H-indazol-5-yl)benzo[d]thiazole-5-carboxamide] | 100 to 1000 | 100 to 1000 | – |
| Cc1cc2nn[nH]c2cc1C(=O)Nc1ccc2[nH]nc(Br)c2c1 [Example 15, N-(3-Bromo-1H-indazol-5-yl)-5-methyl-1H-benzo[d][1,2,3]triazole-6-carboxamide] | ≤ 100 | 1000 to 10000 | – |
| Cc1ccc(-c2n[nH]c3ccc(NC(=O)c4c(F)cc5c(cnn5C)c4F)cc23)s1 [Example 97, 4,6-Difluoro-1-methyl-N-(3-(5-methylthiophen-2-yl)-1H-indazol-5-yl)-1H-indazole-5-carboxamide] | ≤ 100 | ≤ 100 | – |
| Cc1cc2c(cnn2C)cc1C(=O)Nc1ccc2[nH]nc(-c3ccoc3)c2c1 [Example 158, N-(3-(Furan-3-yl)-1H-indazol-5-yl)-1,6-dimethyl-1H-indazole-5-carboxamide] | ≤ 100 | ≤ 100 | – |
| Cc1n[nH]c2ccc(NC(=O)c3ccc4nnc(C)n4c3)cc12 [Example 8, 3-Methyl-N-(3-methyl-1H-indazol-5-yl)-[1,2,4]triazolo[4,3-a]pyridine-6-carboxamide] | 1000 to 10000 | 1000 to 10000 | – |
| Cc1cc2[nH]ccc2cc1C(=O)Nc1ccc2[nH]nc(-c3ccccc3)c2c1 [Example 20, 6-Methyl-N-(3-phenyl-1H-indazol-5-yl)-1H-indole-5-carboxamide] | ≤ 100 | 100 to 1000 | – |
| Cn1ncc2c1CCC(C(=O)Nc1ccc3[nH]nc(-c4ccoc4)c3c1)C2 (single isomer, unassigned) [Example 161a] | ≤ 100 | ≤ 100 | – |
| Cn1cc2cc(C(=O)Nc3ccc4[nH]nc(-c5cnco5)c4c3)ncc2n1 [Example 159, 2-Methyl-N-(3-(oxazol-5-yl)-1H-indazol-5-yl)-2H-pyrazolo[3,4-c]pyridine-5-carboxamide] | ≤ 100 | ≤ 100 | – |
| O=C(Nc1ccc2[nH]nc(-c3ccccc3)c2c1)c1c(Cl)cn2cnnc2c1Cl [Example 63, 6,8-dichloro-N-(3-phenyl-1H-indazol-5-yl)-[1,2,4]triazolo[4,3-a]pyridine-7-carboxamide] | ≤ 100 | ≤ 100 | – |
| Cn1cc(-c2n[nH]c3ccc(NC(=O)c4c(F)cc5c(cnn5C)c4F)cc23)cn1 [Example 35, 4,6-Difluoro-1-methyl-N-(3-(1-methyl-1H-pyrazol-4-yl)-1H-indazol-5-yl)-1H-indazole-5-carboxamide] | ≤ 100 | ≤ 100 | – |
| Cc1cc2nncn2c(C)c1C(=O)Nc1ccc2[nH]nc(-c3ccoc3)c2c1 [Example 153, N-(3-(Furan-3-yl)-1H-indazol-5-yl)-5,7-dimethyl-[1,2,4]triazolo[4,3-a]pyridine-6-carboxamide] | ≤ 100 | ≤ 100 | – |
| CN(C)c1cccc(-c2n[nH]c3ccc(NC(=O)c4c(F)cc5c(cnn5C)c4F)cc23)c1 [Example 88, N-(3-(3-(Dimethylamino)phenyl)-1H-indazol-5-yl)-4,6-difluoro-1-methyl-1H-indazole-5-carboxamide] | ≤ 100 | ≤ 100 | – |
| Cc1cc2cnsc2nc1C(=O)Nc1ccc2[nH]nc(-c3cnco3)c2c1 [Example 168, 5-Methyl-N-(3-(oxazol-5-yl)-1H-indazol-5-yl)isothiazolo[5,4-b]pyridine-6-carboxamide] | ≤ 100 | ≤ 100 | – |

Reference: patent publication US20220162192A1 (ESCAPE Bio, Inc., priority 2019, published 2022)
